Here are results for nine molecules from patent US20250312352A1, “GLP-1R MODULATING COMPOUNDS” (Gilead Sciences, Inc., priority 2021, published 2025).

The experiment deals with T1, GLP-1R (Homo sapiens, UniProt P43220).
T1 construct: host or cells: CHO cells
Nature of the experiment: GLP-1R activation cAMP assay (Assay 1 or Assay 2). Type of experiment: cell-based. Particulars: cAMP increase in CHO cells stably expressing GLP-1R; compounds run on one of the two cAMP assays. The method in brief: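 EC50 values come from a sigmoidal fit of HTRF-detected cAMP rise versus log agonist concentration. GLP-1R-expressing CHO cells, equilibrated 1 h at 37 °C in HBSS with HEPES and BSA, received a 10-point compound dose series for 30 min before detection.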
(In general: Changes in cAMP serve as a functional read-out for many G protein-coupled receptors.)

T1 sequence (P43220 24-463): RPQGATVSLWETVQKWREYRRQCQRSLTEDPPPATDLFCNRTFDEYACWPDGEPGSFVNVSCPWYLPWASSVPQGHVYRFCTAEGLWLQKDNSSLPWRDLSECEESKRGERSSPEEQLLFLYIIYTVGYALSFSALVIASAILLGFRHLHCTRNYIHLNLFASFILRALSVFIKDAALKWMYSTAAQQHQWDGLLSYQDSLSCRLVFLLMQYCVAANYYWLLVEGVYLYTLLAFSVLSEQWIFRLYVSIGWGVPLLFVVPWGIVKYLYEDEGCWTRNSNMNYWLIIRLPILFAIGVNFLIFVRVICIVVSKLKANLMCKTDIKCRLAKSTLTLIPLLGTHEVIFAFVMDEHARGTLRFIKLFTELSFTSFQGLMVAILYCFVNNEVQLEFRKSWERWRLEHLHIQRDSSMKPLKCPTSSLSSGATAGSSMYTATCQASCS

As a reminder, the EC50 is the concentration giving half of the maximal effect. Low values mean a more potent agent, high ones a less potent agent. `O=C(O)c1cc(F)c2nc(Cc3cc(F)c(-c4cccc(OCc5ncc(-c6cnn(C(F)F)c6)s5)n4)cc3F)n(C[C@@H]3CCO3)c2c1` [Example 85, (S)-2-(4-(6-((5-(1-(difluoromethyl)-1H-pyrazol-4-yl)thiazol-2-yl)methoxy)pyridin-2-yl)-2,5-difluorobenzyl)-4-fluoro-1-(oxetan-2-ylmethyl)-1H-benzo[d]imidazole-6-carboxylic acid]: the EC50 came out at 0.05 nM. This lies in the picomolar range. The result for `Cn1cc(-c2cc(F)c(COc3cccc(-c4cc(F)c(Cc5nc6ccc(C(=O)O)cc6n5C[C@@H]5CCO5)cc4F)n3)s2)cn1` [Example 86, (S)-2-(2,5-difluoro-4-(6-((3-fluoro-5-(1-methyl-1H-pyrazol-4-yl)thiophen-2-yl)methoxy)pyridin-2-yl)benzyl)-1-(oxetan-2-ylmethyl)-1H-benzo[d]imidazole-6-carboxylic acid] reads 0.14 nM.

Turning to `Cn1cc(-c2cnc(COc3cccc(-c4cc(F)c(Cc5nc6c(F)cc(C(=O)O)cc6n5C[C@@H]5CCO5)cc4F)n3)s2)cn1` [Example 87, (S)-2-(2,5-difluoro-4-(6-((5-(1-methyl-1H-pyrazol-4-yl)thiazol-2-yl)methoxy)pyridin-2-yl)benzyl)-4-fluoro-1-(oxetan-2-ylmethyl)-1H-benzo[d]imidazole-6-carboxylic acid], a half-maximal response (EC50) required 0.08 nM. The result for `O=C(O)c1ccc2nc(Cc3cc(F)c(-c4cccc(OCc5ncc(-c6cnn(CC7CC7)c6)s5)n4)cc3F)n(C[C@@H]3CCO3)c2c1` [Example 88, (S)-2-(4-(6-((5-(1-(cyclopropylmethyl)-1H-pyrazol-4-yl)thiazol-2-yl)methoxy)pyridin-2-yl)-2,5-difluorobenzyl)-1-(oxetan-2-ylmethyl)-1H-benzo[d]imidazole-6-carboxylic acid] reads 0.44 nM; that for `Cn1cc(-c2cnc(COc3cccc(-c4cc(F)c(Cc5nc6ccc(C(=O)O)cc6n5C[C@@H]5CCO5)cc4F)n3)s2)nn1` [Example 89, (S)-2-(2,5-difluoro-4-(6-((5-(1-methyl-1H-1,2,3-triazol-4-yl)thiazol-2-yl)methoxy)pyridin-2-yl)benzyl)-1-(oxetan-2-ylmethyl)-1H-benzo[d]imidazole-6-carboxylic acid], 1.86 nM. As to `O=C(O)c1ccc2nc(Cc3cc(F)c(-c4cccc(OCc5ncc(-c6cnn(C7CC7)c6)s5)n4)cc3F)n(C[C@@H]3CCO3)c2c1` [Example 90, (S)-2-(4-(6-((5-(1-cyclopropyl-1H-pyrazol-4-yl)thiazol-2-yl)methoxy)pyridin-2-yl)-2,5-difluorobenzyl)-1-(oxetan-2-ylmethyl)-1H-benzo[d]imidazole-6-carboxylic acid], it took 0.21 nM to reach a half-maximal effect (EC50).

`Cn1cc(-c2nnc(COc3cccc(-c4cc(F)c(Cc5nc6ccc(C(=O)O)cc6n5C[C@@H]5CCO5)cc4F)n3)s2)cn1` [Example 91, (S)-2-(2,5-difluoro-4-(6-((5-(1-methyl-1H-pyrazol-4-yl)-1,3,4-thiadiazol-2-yl)methoxy)pyridin-2-yl)benzyl)-1-(oxetan-2-ylmethyl)-1H-benzo[d]imidazole-6-carboxylic acid] gave an EC50 of 0.12 nM. Against the preceding molecule, the EC50 is about 1.8-fold lower. Consider `O=C(O)c1ccc2nc(Cc3cc(F)c(-c4cccc(OCc5nnc(-c6cnn(C(F)F)c6)s5)n4)cc3F)n(C[C@@H]3CCO3)c2c1` [Example 92, (S)-2-(4-(6-((5-(1-(difluoromethyl)-1H-pyrazol-4-yl)-1,3,4-thiadiazol-2-yl)methoxy)pyridin-2-yl)-2,5-difluorobenzyl)-1-(oxetan-2-ylmethyl)-1H-benzo[d]imidazole-6-carboxylic acid], for which the EC50 amounted to 0.07 nM. For `O=C(O)c1ccc2nc(Cc3cc(F)c(-c4cccc(OCc5ncc(-c6cnco6)s5)n4)cc3F)n(C[C@@H]3CCO3)c2c1` [Example 93, (S)-2-(2,5-difluoro-4-(6-((5-(oxazol-5-yl)thiazol-2-yl)methoxy)pyridin-2-yl)benzyl)-1-(oxetan-2-ylmethyl)-1H-benzo[d]imidazole-6-carboxylic acid] the value was 0.06 nM.
